Molecular target: T1, Human BCL6 protein (N-terminal HiBiT tagged BCL6 in HT1080 cells) (Homo sapiens, UniProt P41182+Q96SW2)
T1 construct: Human BCL6 protein coding open reading frame; expressed in transfected cells; host or cells: HT1080 (ATCC CCL-121), stably transduced with lentivirus pLV-UBC-N-HiBiT-BCL6-PGK-puro
Experiment: HiBiT based BCL6 degradation assay
Type: cell-based
Details: HT1080 cells expressing N-terminal HiBiT tagged BCL6; 5 hours incubation; BCL6 degradation normalized with DMSO control
From the text: Human BCL6 protein coding open reading frame fused with N-terminal HiBiT coding sequence was synthesized from Integrated DNA Technologies (IDT). Next, the N-HiBiT-BCL6 sequence was cloned into pLV-UBC-PGK-Puro, a lentivirus plasmid purchased from Vectorbuilder, to generate pLV-UBC-N-HiBiT-BCL6-PGK-puro. Lentiviral particles were generated from Lenti-X™ 293T cells (Clontech) by co-transfection of pLV-UBC-N-HiBiT-BCL6-PGK-puro plasmids and lentiviral packaging plasmid mix (Cellecta). HT1080 [HT1080] (ATCC CCL-121) cells were infected with the lentivirus, and HT1080 cells stably integrated with the lentiviral vectors were established by incubation with 1 μg/mL puromycin (Thermofisher).
HT1080 cells expressing N-terminal HiBiT tagged BCL6 were dispensed into a 384-well plate pre-spotted with compounds at varying concentrations. Five thousand cells were seeded into each well in 40 μL of RPMI 1640 media plus 10% Fetal Bovine Serum (10082-147, Thermofisher). After 5 hours of incubation at 37° C. with 5% CO2, 30 μL of the NANO-GLO® HiBiT Lytic Detection System working solution (Promega) was added to each well and incubated at room temperature for 15 min. After incubation, luminescence was read on a PHERAstar FSX Plate Reader (BMG). BCL6 degradation at each indicated concentration was normalized with DMSO control. The BCL6 degradation curves were plotted using a four-parameter logistic model.

Row | Ymin (5 hr) | Compound
1 | ++ (50% < Ymin ≤ 70%) | CNC(=O)COc1cc2cc(Nc3nc(N4CCC[C@H](CCNc5ccc6c(C7CCC(=O)NC7=O)nn(C)c6c5)C4)ncc3Cl)ccc2n(C)c1=O (single isomer, unassigned) [Compound 290a]
2 | +++ (25% < Ymin ≤ 50%) | CNC(=O)COc1cc2cc(Nc3nc(N4CCC[C@@H](CCNc5ccc6c(C7CCC(=O)NC7=O)nn(C)c6c5)C4)ncc3Cl)ccc2n(C)c1=O (single isomer, unassigned) [Compound 290b]
3 | ++ (50% < Ymin ≤ 70%) | CNC(=O)COc1cc2cc(Nc3nc(N4CCC[C@H](CCNc5cccc6c(C7CCC(=O)NC7=O)nn(C)c56)C4)ncc3Cl)ccc2n(C)c1=O (single isomer, unassigned) [Compound 294b]
4 | ++++ (Ymin ≤ 25%) | CNC(=O)COc1cc2cc(Nc3nc(N4CCN([C@@H](C)C5CCN(c6cccc7c(C8CCC(=O)NC8=O)nn(C)c67)CC5)CC4)ncc3Cl)ccc2n(C)c1=O (single isomer, unassigned) [Compound 307a]
5 | +++ (25% < Ymin ≤ 50%) | CNC(=O)COc1cc2cc(Nc3nc(N4CCN([C@H](C)C5CCN(c6cccc7c(C8CCC(=O)NC8=O)nn(C)c67)CC5)CC4)ncc3Cl)ccc2n(C)c1=O (single isomer, unassigned) [Compound 307b]
6 | ++ (50% < Ymin ≤ 70%) | CNC(=O)COc1cc2cc(Nc3nc(N4CCC[C@@H](CCNc5cccc6c(C7CCC(=O)NC7=O)nn(C)c56)C4)ncc3Cl)ccc2n(C)c1=O (stereo in doubt) [Compound 294a, rel-2-((6-((5-chloro-2-((3S)-3-(2-((3-(2,6-dioxopiperidin-3-yl)-1-methyl-1H-indazol-7-yl)amino)ethyl)piperidin-1-yl)pyrimidin-4-yl)amino)-1-methyl-2-oxo-1,2-dihydroquinolin-3-yl)oxy)-N-methylacetamide]
7 | ++++ (Ymin ≤ 25%) | CNC(=O)COc1cc2cc(Nc3nc(N4CCN(CC5CCC6(CC5)CN(c5ccc7c(C8CCC(=O)NC8=O)nn(C)c7c5)C6)CC4)ncc3Cl)ccc2n(C)c1=O (centres unmarked) [Compound 103, 2-((6-((5-chloro-2-(4-((2-(3-(2,6-dioxopiperidin-3-yl)-1-methyl-1H-indazol-6-yl)-2-azaspiro[3.5]nonan-7-yl)methyl)piperazin-1-yl)pyrimidin-4-yl)amino)-1-methyl-2-oxo-1,2-dihydroquinolin-3-yl)oxy)-N-methylacetamide]
8 | +++ (25% < Ymin ≤ 50%) | CNC(=O)COc1cc2cc(Nc3nc(N4CCN(CC5CCC6(CC5)CN(c5cccc7c(C8CCC(=O)NC8=O)nn(C)c57)C6)CC4)ncc3Cl)ccc2n(C)c1=O (centres unmarked) [Compound 104, 2-((6-((5-chloro-2-(4-((2-(3-(2,6-dioxopiperidin-3-yl)-1-methyl-1H-indazol-7-yl)-2-azaspiro[3.5]nonan-7-yl)methyl)piperazin-1-yl)pyrimidin-4-yl)amino)-1-methyl-2-oxo-1,2-dihydroquinolin-3-yl)oxy)-N-methylacetamide]
9 | ++ (50% < Ymin ≤ 70%) | CNC(=O)COc1cc2cc(Nc3nc(N4CCC(CNC(=O)c5cccc(C6CCC(=O)NC6=O)c5)CC4)ncc3Cl)ccc2n(C)c1=O (centres unmarked) [Compound 105, N-((1-(5-chloro-4-((1-methyl-3-(2-(methylamino)-2-oxoethoxy)-2-oxo-1,2-dihydroquinolin-6-yl)amino)pyrimidin-2-yl)piperidin-4-yl)methyl)-3-(2,6-dioxopiperidin-3-yl)benzamide]
10 | ++ (50% < Ymin ≤ 70%) | CNC(=O)COc1cc2cc(Nc3nc(N4CCC[C@H](CNc5ccc(C6CCC(=O)NC6=O)cc5)C4)ncc3Cl)ccc2n(C)c1=O (stereo partly drawn) [Compound 106a, 2-((6-((5-chloro-2-((3R)-3-(((4-(2,6-dioxopiperidin-3-yl)phenyl)amino)methyl)piperidin-1-yl)pyrimidin-4-yl)amino)-1-methyl-2-oxo-1,2-dihydroquinolin-3-yl)oxy)-N-methylacetamide]
11 | ++ (50% < Ymin ≤ 70%) | CNC(=O)COc1cc2cc(Nc3nc(N4CCC[C@@H](CNc5ccc(C6CCC(=O)NC6=O)cc5)C4)ncc3Cl)ccc2n(C)c1=O (stereo partly drawn) [Compound 106b, 2-((6-((5-chloro-2-((3S)-3-(((4-(2,6-dioxopiperidin-3-yl)phenyl)amino)methyl)piperidin-1-yl)pyrimidin-4-yl)amino)-1-methyl-2-oxo-1,2-dihydroquinolin-3-yl)oxy)-N-methylacetamide]
12 | ++++ (Ymin ≤ 25%) | CNC(=O)COc1cc2cc(Nc3nc(N4CCN(CC5CCN(c6cccc7c(C8CCC(=O)NC8=O)nn(C)c67)CC5)CC4)ncc3Cl)ccc2n(C(C)C)c1=O (centres unmarked) [Compound 107, 2-((6-((5-chloro-2-(4-((1-(3-(2,6-dioxopiperidin-3-yl)-1-methyl-1H-indazol-7-yl)piperidin-4-yl)methyl)piperazin-1-yl)pyrimidin-4-yl)amino)-1-isopropyl-2-oxo-1,2-dihydroquinolin-3-yl)oxy)-N-methylacetamide]
13 | +++ (25% < Ymin ≤ 50%) | CNC(=O)COc1cc2cc(Nc3nc(N4CCN(CC5CCN(c6ccc7c(C8CCC(=O)NC8=O)nn(C)c7c6)CC5)CC4)ncc3Cl)ccc2n(C(C)C)c1=O (centres unmarked) [Compound 108, 2-((6-((5-chloro-2-(4-((1-(3-(2,6-dioxopiperidin-3-yl)-1-methyl-1H-indazol-6-yl)piperidin-4-yl)methyl)piperazin-1-yl)pyrimidin-4-yl)amino)-1-isopropyl-2-oxo-1,2-dihydroquinolin-3-yl)oxy)-N-methylacetamide]
14 | ++ (50% < Ymin ≤ 70%) | CNC(=O)COc1cc2cc(Nc3nc(N4CCC[C@@H]4CNc4cccc(C5CCC(=O)NC5=O)c4)ncc3Cl)ccc2n(C)c1=O (stereo partly drawn) [Compound 260a, 2-((6-((5-chloro-2-((2R)-2-(((3-(2,6-dioxopiperidin-3-yl)phenyl)amino)methyl)pyrrolidin-1-yl)pyrimidin-4-yl)amino)-1-methyl-2-oxo-1,2-dihydroquinolin-3-yl)oxy)-N-methylacetamide]
15 | + (Ymin > 70%) | CNC(=O)COc1cc2cc(Nc3nc(N4CCC[C@H]4CNc4cccc(C5CCC(=O)NC5=O)c4)ncc3Cl)ccc2n(C)c1=O (stereo partly drawn) [Compound 260b, 2-((6-((5-chloro-2-((2S)-2-(((3-(2,6-dioxopiperidin-3-yl)phenyl)amino)methyl)pyrrolidin-1-yl)pyrimidin-4-yl)amino)-1-methyl-2-oxo-1,2-dihydroquinolin-3-yl)oxy)-N-methylacetamide]
16 | ++ (50% < Ymin ≤ 70%) | CNC(=O)COc1cc2cc(Nc3nc(N4CCC[C@@H](CNc5ccc6c(C7CCC(=O)NC7=O)nn(C)c6c5)C4)ncc3Cl)ccc2n(C)c1=O (stereo partly drawn) [Compound 261a, 2-((6-((5-chloro-2-((3S)-3-(((3-(2,6-dioxopiperidin-3-yl)-1-methyl-1H-indazol-6-yl)amino)methyl)piperidin-1-yl)pyrimidin-4-yl)amino)-1-methyl-2-oxo-1,2-dihydroquinolin-3-yl)oxy)-N-methylacetamide]
17 | +++ (25% < Ymin ≤ 50%) | CNC(=O)COc1cc2cc(Nc3nc(N4CCC[C@H](CNc5ccc6c(C7CCC(=O)NC7=O)nn(C)c6c5)C4)ncc3Cl)ccc2n(C)c1=O (stereo partly drawn) [Compound 261b, 2-((6-((5-chloro-2-((3R)-3-(((3-(2,6-dioxopiperidin-3-yl)-1-methyl-1H-indazol-6-yl)amino)methyl)piperidin-1-yl)pyrimidin-4-yl)amino)-1-methyl-2-oxo-1,2-dihydroquinolin-3-yl)oxy)-N-methylacetamide]
18 | ++ (50% < Ymin ≤ 70%) | CNC(=O)COc1cc2cc(Nc3nc(NC[C@H]4CC[C@@H](Nc5cccc(C6CCC(=O)NC6=O)c5)CC4)ncc3Cl)ccc2n(C)c1=O (some centres unmarked) [Compound 262a, 2-((6-((5-chloro-2-((((1s,4s)-4-((3-(2,6-dioxopiperidin-3-yl)phenyl)amino)cyclohexyl)methyl)amino)pyrimidin-4-yl)amino)-1-methyl-2-oxo-1,2-dihydroquinolin-3-yl)oxy)-N-methylacetamide]
19 | ++ (50% < Ymin ≤ 70%) | CNC(=O)COc1cc2cc(Nc3nc(NC[C@H]4CC[C@H](Nc5cccc(C6CCC(=O)NC6=O)c5)CC4)ncc3Cl)ccc2n(C)c1=O (some centres unmarked) [Compound 262b, 2-((6-((5-chloro-2-((((1r,4r)-4-((3-(2,6-dioxopiperidin-3-yl)phenyl)amino)cyclohexyl)methyl)amino)pyrimidin-4-yl)amino)-1-methyl-2-oxo-1,2-dihydroquinolin-3-yl)oxy)-N-methylacetamide]
20 | ++ (50% < Ymin ≤ 70%) | CNC(=O)COc1cc2cc(Nc3nc(N4CCC(CCNc5cccc(C6CCC(=O)NC6=O)c5)CC4)ncc3Cl)ccc2n(C)c1=O (centres unmarked) [Compound 263, 2-((6-((5-chloro-2-(4-(2-((3-(2,6-dioxopiperidin-3-yl)phenyl)amino)ethyl)piperidin-1-yl)pyrimidin-4-yl)amino)-1-methyl-2-oxo-1,2-dihydroquinolin-3-yl)oxy)-N-methylacetamide]

Source: patent US20250270191A1, “QUINOLONE BCL6 BIFUNCTIONAL DEGRADERS” (Treeline Biosciences, Inc., priority 2022, published 2025)
